In PubChem BioAssay AID2060627 (Molecular Pharmacology Branch, DTP, NCI, 2025):

Tested on: 156681-154-R-J1-PDC complex spheroid viability
Test: Anticancer human tumor 156681-154-R-J1-PDC patient-derived melanoma cell line growth inhibition [CLK]
Conditions: for IC50: curve of first compound; for viability, T/C: stronger effect = lower value; active = viability on the fitted dose curve at most 10% of control; inactive = the rest
In short: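 Patient-derived tumor cells grown as complex spheroids with HUVEC endothelial cells and mesenchymal stem cells, treated with drug combinations. Concentrations descend in half-log steps from near clinical Cmax, or from 10 microM if Cmax unknown.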

[1] = second compound 0.0316 µM, first compound 0.000949 µM
[2] = second compound 0.0316 µM, first compound 0.003 µM
[3] = second compound 0.0316 µM, first compound 0.00949 µM
[4] = second compound 0.0316 µM, first compound 0.03 µM
[5] = second compound 0.0316 µM, first compound 0.0949 µM
[6] = second compound 0.0316 µM, first compound 0.3 µM
[7] = second compound 0.1 µM, first compound 0.000949 µM
[8] = second compound 0.1 µM, first compound 0.003 µM
[9] = second compound 0.1 µM, first compound 0.00949 µM
[10] = second compound 0.1 µM, first compound 0.03 µM
[11] = second compound 0.1 µM, first compound 0.0949 µM
[12] = second compound 0.1 µM, first compound 0.3 µM
[13] = second compound 0.316 µM, first compound 0.000949 µM
[14] = second compound 0.316 µM, first compound 0.003 µM
[15] = second compound 0.316 µM, first compound 0.00949 µM
[16] = second compound 0.316 µM, first compound 0.03 µM
[17] = second compound 0.316 µM, first compound 0.0949 µM
[18] = second compound 0.316 µM, first compound 0.3 µM
[19] = second compound 1 µM, first compound 0.000949 µM
[20] = second compound 1 µM, first compound 0.003 µM
[21] = second compound 1 µM, first compound 0.00949 µM
[22] = second compound 1 µM, first compound 0.03 µM
[23] = second compound 1 µM, first compound 0.0949 µM
[24] = second compound 1 µM, first compound 0.3 µM
[25] = second compound 3.16 µM, first compound 0.000949 µM
[26] = second compound 3.16 µM, first compound 0.003 µM
[27] = second compound 3.16 µM, first compound 0.00949 µM
[28] = second compound 3.16 µM, first compound 0.03 µM
[29] = second compound 3.16 µM, first compound 0.0949 µM
[30] = second compound 3.16 µM, first compound 0.3 µM
[31] = second compound 10 µM, first compound 0.000949 µM
[32] = second compound 10 µM, first compound 0.003 µM
[33] = second compound 10 µM, first compound 0.00949 µM
[34] = second compound 10 µM, first compound 0.03 µM
[35] = second compound 10 µM, first compound 0.0949 µM
[36] = second compound 10 µM, first compound 0.3 µM
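Also: spheroids exposed to the agents for seven days.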
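For viability, T/C in this document: 100% = DMSO vehicle control viability.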

C=CC(=O)Nc1cc(Nc2nccc(-c3cn(C)c4ccccc34)n2)c(OC)cc1N(C)CCN(C)C + CNC(=O)c1ccc(Nc2nc(OC3CCCC3)c3c(-c4ccc5nc(C)oc5c4)c[nH]c3n2)c(OC)c1
2.45 nM: IC50 (second compound 3.16 µM)
> 300 nM: IC50 (second compound 0.0316 µM) | IC50 (second compound 0.1 µM) | IC50 (second compound 0.316 µM)
242 nM: IC50 (second compound 1 µM)
< 0.949 nM: IC50 (second compound 10 µM)
inactive: viability, T/C [1] 82.8% | viability, T/C [2] 97.7% | viability, T/C [3] 90.6% | viability, T/C [4] 111% | viability, T/C [5] 109% | viability, T/C [6] 90% | viability, T/C [7] 67.7% | viability, T/C [8] 64.1% | viability, T/C [9] 61.8% | viability, T/C [10] 68.5% | viability, T/C [11] 64.3% | viability, T/C [12] 64.8% | viability, T/C [13] 71.5% | viability, T/C [14] 64.8% | viability, T/C [15] 83.1% | viability, T/C [16] 62.7% | viability, T/C [17] 63.2% | viability, T/C [18] 64% | viability, T/C [19] 62.1% | viability, T/C [20] 56% | viability, T/C [21] 53.5% | viability, T/C [22] 48.2% | viability, T/C [23] 64.8% | viability, T/C [24] 43.6% | viability, T/C [25] 50.1% | viability, T/C [26] 57.6% | viability, T/C [27] 35.2% | viability, T/C [28] 47.2% | viability, T/C [29] 37.9% | viability, T/C [30] 29.1% | viability, T/C [31] 44.9% | viability, T/C [32] 41.8% | viability, T/C [33] 31.9% | viability, T/C [34] 43.1% | viability, T/C [35] 45% | viability, T/C [36] 24.2%

C=CC(=O)Nc1cc(Nc2nccc(-c3cn(C)c4ccccc34)n2)c(OC)cc1N(C)CCN(C)C + CN1CCN(c2cc(C(=O)Nc3cc4cc(-c5cnn(C)c5)ccc4cn3)ccn2)CC1
inactive: viability, T/C [1] 102% | viability, T/C [2] 91.7% | viability, T/C [3] 112% | viability, T/C [4] 89.8% | viability, T/C [5] 94.8% | viability, T/C [6] 90% | viability, T/C [7] 99.7% | viability, T/C [8] 90.2% | viability, T/C [9] 97.7% | viability, T/C [10] 94.7% | viability, T/C [11] 77.6% | viability, T/C [12] 79.9% | viability, T/C [13] 19.2% | viability, T/C [14] 26.4% | viability, T/C [15] 23.4% | viability, T/C [16] 13.1% | viability, T/C [17] 24.2% | viability, T/C [18] 11.1%
< 0.949 nM: IC50 (second compound 0.316 µM) | IC50 (second compound 1 µM) | IC50 (second compound 3.16 µM) | IC50 (second compound 10 µM)
active: viability, T/C [19] 0.2% | viability, T/C [20] 0.66% | viability, T/C [21] 0.19% | viability, T/C [22] 0.27% | viability, T/C [23] 0.26% | viability, T/C [24] 1.38% | viability, T/C [25] 0.16% | viability, T/C [26] 1.53% | viability, T/C [27] 0.47% | viability, T/C [28] 0.12% | viability, T/C [29] 1.26% | viability, T/C [30] 0.93% | viability, T/C [31] 1.34% | viability, T/C [32] 0.16% | viability, T/C [33] 0.96% | viability, T/C [34] 1.65% | viability, T/C [35] 2.39% | viability, T/C [36] 2.57%
> 300 nM: IC50 (second compound 0.0316 µM) | IC50 (second compound 0.1 µM)
